In ChEMBL document CHEMBL3046091, “Synthesis and antimicrobial activities of 2-azetidinyl-4-quinazolinone derivatives of diclofenac analogue” (2011):

Columns and labels:
Assay type in all cases: functional
[1] = tested on: Pseudomonas aeruginosa; test: Antibacterial activity against Pseudomonas aeruginosa ATCC 9027 at 50 ug/ml by cup-plate method; conditions: read-out: IZ
[2] = tested on: Pseudomonas aeruginosa; test: Antibacterial activity against Pseudomonas aeruginosa ATCC 9027 at 50 to 100 ug/ml by cup-plate method
[3] = tested on: Pseudomonas aeruginosa; test: Antibacterial activity against Pseudomonas aeruginosa ATCC 9027 at 100 ug/ml by cup-plate method; conditions: read-out: IZ
[4] = tested on: Bacillus subtilis; test: Antibacterial activity against Bacillus subtilis ATCC 6633 at 50 ug/ml by cup-plate method; conditions: read-out: IZ
[5] = tested on: Bacillus subtilis; test: Antibacterial activity against Bacillus subtilis ATCC 6633 at 50 to 100 ug/ml by cup-plate method
[6] = tested on: Bacillus subtilis; test: Antibacterial activity against Bacillus subtilis ATCC 6633 at 100 ug/ml by cup-plate method; conditions: read-out: IZ
[7] = tested on: Staphylococcus aureus; test: Antibacterial activity against Staphylococcus aureus ATCC 9144 at 50 to 100 ug/ml by cup-plate method
[8] = tested on: Staphylococcus aureus; test: Antibacterial activity against Staphylococcus aureus ATCC 9144 at 50 ug/ml by cup-plate method; conditions: read-out: IZ
[9] = tested on: Staphylococcus aureus; test: Antibacterial activity against Staphylococcus aureus ATCC 9144 at 100 ug/ml by cup-plate method; conditions: read-out: IZ
[10] = tested on: Candida albicans; test: Antifungal activity against Candida albicans ATCC 10231 at 100 ug/ml by cup-plate method; conditions: read-out: IZ
[11] = tested on: Candida albicans; test: Antifungal activity against Candida albicans ATCC 10231 at 50 ug/ml by cup-plate method; conditions: read-out: IZ
[12] = tested on: Escherichia coli; test: Antibacterial activity against Escherichia coli ATCC 25922 at 50 ug/ml by cup-plate method; conditions: read-out: IZ
[13] = tested on: Escherichia coli; test: Antibacterial activity against Escherichia coli ATCC 25922 at 50 to 100 ug/ml by cup-plate method
[14] = tested on: Escherichia coli; test: Antibacterial activity against Escherichia coli ATCC 25922 at 100 ug/ml by cup-plate method; conditions: read-out: IZ

With `COc1ccc(C2C(Cl)C(=O)N2c2ccc(-n3c(Cc4ccccc4Nc4c(Cl)cccc4Cl)nc4ccc(Br)cc4c3=O)cc2)cc1` (centres undefined) the zone of inhibition at 50 µg/mL [1] was 4 mm, the Activity [2] was 65.76% and the zone of inhibition at 100 µg/mL [3] was 8 mm. For the same compound, the zone of inhibition at 50 µg/mL [4] was 4 mm, the Activity [5] was 57.14% and the zone of inhibition at 100 µg/mL [6] was 8 mm. It also gave an Activity [7] of 60.94%, a zone of inhibition at 50 µg/mL [8] of 4 mm and a zone of inhibition at 100 µg/mL [9] of 8 mm. The zone of inhibition at 100 µg/mL [10] was 4 mm, the zone of inhibition at 50 µg/mL [11] was 2 mm and the zone of inhibition at 50 µg/mL [12] was 4 mm. The Activity [13] was 53.33% and the zone of inhibition at 100 µg/mL [14] was 8 mm.

`COc1ccc(/C=N/c2ccc(-n3c(Cc4ccccc4Nc4c(Cl)cccc4Cl)nc4ccc(Br)cc4c3=O)cc2)cc1` was tested, and the zone of inhibition at 50 µg/mL [1] was 3 mm, the Activity [2] was 52.88% and the zone of inhibition at 100 µg/mL [3] was 6 mm. It also gave a zone of inhibition at 50 µg/mL [4] of 5 mm, an Activity [5] of 63.91% and a zone of inhibition at 100 µg/mL [6] of 9 mm. It also gave an Activity [7] of 53.85%, a zone of inhibition at 50 µg/mL [8] of 4 mm and a zone of inhibition at 100 µg/mL [9] of 7 mm. The zone of inhibition at 100 µg/mL [10] was 3 mm, the zone of inhibition at 50 µg/mL [11] was 2 mm and the zone of inhibition at 50 µg/mL [12] was 5 mm. For the same compound, the Activity [13] was 64.33% and the zone of inhibition at 100 µg/mL [14] was 9 mm.

`O=c1c2cc(Br)ccc2nc(Cc2ccccc2Nc2c(Cl)cccc2Cl)n1-c1ccc(/N=C/c2cccc([N+](=O)[O-])c2)cc1` was tested, and the zone of inhibition at 50 µg/mL [1] was 1 mm, the Activity [2] was 33.92% and the zone of inhibition at 100 µg/mL [3] was 3 mm. The zone of inhibition at 50 µg/mL [4] was 2 mm, the Activity [5] was 24.99% and the zone of inhibition at 100 µg/mL [6] was 3 mm. The Activity [7] was 29.73%, the zone of inhibition at 50 µg/mL [8] was 1 mm and the zone of inhibition at 100 µg/mL [9] was 3 mm. For the same compound, the zone of inhibition at 100 µg/mL [10] was 2 mm, the zone of inhibition at 50 µg/mL [11] was 1 mm and the zone of inhibition at 50 µg/mL [12] was 1 mm. The Activity [13] was 28.39% and the zone of inhibition at 100 µg/mL [14] was 3 mm.

With `O=C1C(Cl)C(c2ccc(O)cc2)N1c1ccc(-n2c(Cc3ccccc3Nc3c(Cl)cccc3Cl)nc3ccc(Br)cc3c2=O)cc1` (centres undefined) the zone of inhibition at 50 µg/mL [1] was 4 mm, the Activity [2] was 58.33% and the zone of inhibition at 100 µg/mL [3] was 7 mm. It also gave a zone of inhibition at 50 µg/mL [4] of 3 mm, an Activity [5] of 35.08% and a zone of inhibition at 100 µg/mL [6] of 5 mm. The Activity [7] was 44.44%, the zone of inhibition at 50 µg/mL [8] was 3 mm and the zone of inhibition at 100 µg/mL [9] was 5 mm. The zone of inhibition at 100 µg/mL [10] was 0 mm, the zone of inhibition at 50 µg/mL [11] was 0 mm and the zone of inhibition at 50 µg/mL [12] was 2 mm. The Activity [13] was 37.89% and the zone of inhibition at 100 µg/mL [14] was 5 mm.

In the case of `CCN(CC)c1ccc(/C=N/c2ccc(-n3c(Cc4ccccc4Nc4c(Cl)cccc4Cl)nc4ccc(Br)cc4c3=O)cc2)c(O)c1`, the zone of inhibition at 50 µg/mL [1] is reported as 0 mm, the Activity [2] is reported as 0% and the zone of inhibition at 100 µg/mL [3] is reported as 0 mm. The zone of inhibition at 50 µg/mL [4] was 0 mm, the Activity [5] was 0% and the zone of inhibition at 100 µg/mL [6] was 0 mm. The Activity [7] was 0%, the zone of inhibition at 50 µg/mL [8] was 0 mm and the zone of inhibition at 100 µg/mL [9] was 0 mm. It also gave a zone of inhibition at 100 µg/mL [10] of 0 mm, a zone of inhibition at 50 µg/mL [11] of 0 mm and a zone of inhibition at 50 µg/mL [12] of 0 mm. It also gave an Activity [13] of 0% and a zone of inhibition at 100 µg/mL [14] of 0 mm.

`COc1cc(C2C(Cl)C(=O)N2c2ccc(-n3c(Cc4ccccc4Nc4c(Cl)cccc4Cl)nc4ccc(Br)cc4c3=O)cc2)cc(OC)c1OC` (centres undefined) showed a zone of inhibition at 50 µg/mL [1] of 4 mm, an Activity [2] of 58.33% and a zone of inhibition at 100 µg/mL [3] of 7 mm. For the same compound, the zone of inhibition at 50 µg/mL [4] was 5 mm, the Activity [5] was 46.48% and the zone of inhibition at 100 µg/mL [6] was 7 mm. The Activity [7] was 58.33%, the zone of inhibition at 50 µg/mL [8] was 4 mm and the zone of inhibition at 100 µg/mL [9] was 7 mm. It also gave a zone of inhibition at 100 µg/mL [10] of 2 mm, a zone of inhibition at 50 µg/mL [11] of 1 mm and a zone of inhibition at 50 µg/mL [12] of 3 mm. For the same compound, the Activity [13] was 50% and the zone of inhibition at 100 µg/mL [14] was 7 mm.

`CN(C)c1ccc(/C=N/c2ccc(-n3c(Cc4ccccc4Nc4c(Cl)cccc4Cl)nc4ccc(Br)cc4c3=O)cc2)cc1` was tested, and the zone of inhibition at 50 µg/mL [1] was 0 mm, the Activity [2] was 0% and the zone of inhibition at 100 µg/mL [3] was 0 mm. It also gave a zone of inhibition at 50 µg/mL [4] of 0 mm, an Activity [5] of 0% and a zone of inhibition at 100 µg/mL [6] of 0 mm. It also gave an Activity [7] of 0%, a zone of inhibition at 50 µg/mL [8] of 0 mm and a zone of inhibition at 100 µg/mL [9] of 0 mm. The zone of inhibition at 100 µg/mL [10] was 1 mm, the zone of inhibition at 50 µg/mL [11] was 0 mm and the zone of inhibition at 50 µg/mL [12] was 0 mm. For the same compound, the Activity [13] was 0% and the zone of inhibition at 100 µg/mL [14] was 0 mm.

`O=c1c2cc(Br)ccc2nc(Cc2ccccc2Nc2c(Cl)cccc2Cl)n1-c1ccc(/N=C/c2ccccc2[N+](=O)[O-])cc1` showed a zone of inhibition at 50 µg/mL [1] of 2 mm, an Activity [2] of 35.33% and a zone of inhibition at 100 µg/mL [3] of 4 mm. It also gave a zone of inhibition at 50 µg/mL [4] of 3 mm, an Activity [5] of 36% and a zone of inhibition at 100 µg/mL [6] of 5 mm. It also gave an Activity [7] of 28.43%, a zone of inhibition at 50 µg/mL [8] of 2 mm and a zone of inhibition at 100 µg/mL [9] of 3 mm. The zone of inhibition at 100 µg/mL [10] was 2 mm, the zone of inhibition at 50 µg/mL [11] was 1 mm and the zone of inhibition at 50 µg/mL [12] was 2 mm. For the same compound, the Activity [13] was 32.65% and the zone of inhibition at 100 µg/mL [14] was 4 mm.

`COc1ccc(/C=N/c2ccc(-n3c(Cc4ccccc4Nc4c(Cl)cccc4Cl)nc4ccc(Br)cc4c3=O)cc2)c(O)c1` was tested, and the zone of inhibition at 50 µg/mL [1] was 2 mm, the Activity [2] was 38.83% and the zone of inhibition at 100 µg/mL [3] was 4 mm. For the same compound, the zone of inhibition at 50 µg/mL [4] was 4 mm, the Activity [5] was 47.81% and the zone of inhibition at 100 µg/mL [6] was 7 mm. It also gave an Activity [7] of 50%, a zone of inhibition at 50 µg/mL [8] of 4 mm and a zone of inhibition at 100 µg/mL [9] of 6 mm. The zone of inhibition at 100 µg/mL [10] was 0 mm, the zone of inhibition at 50 µg/mL [11] was 0 mm and the zone of inhibition at 50 µg/mL [12] was 4 mm. It also gave an Activity [13] of 42.86% and a zone of inhibition at 100 µg/mL [14] of 6 mm.

In the case of `COc1cc(/C=N/c2ccc(-n3c(Cc4ccccc4Nc4c(Cl)cccc4Cl)nc4ccc(Br)cc4c3=O)cc2)cc(OC)c1OC`, the zone of inhibition at 50 µg/mL [1] is reported as 2 mm, the Activity [2] is reported as 47.09% and the zone of inhibition at 100 µg/mL [3] is reported as 5 mm. The zone of inhibition at 50 µg/mL [4] was 4 mm, the Activity [5] was 53.33% and the zone of inhibition at 100 µg/mL [6] was 8 mm. It also gave an Activity [7] of 50.98%, a zone of inhibition at 50 µg/mL [8] of 3 mm and a zone of inhibition at 100 µg/mL [9] of 6 mm. It also gave a zone of inhibition at 100 µg/mL [10] of 2 mm, a zone of inhibition at 50 µg/mL [11] of 1 mm and a zone of inhibition at 50 µg/mL [12] of 4 mm. It also gave an Activity [13] of 50% and a zone of inhibition at 100 µg/mL [14] of 7 mm.

`O=C1C(Cl)C(c2ccc(Cl)cc2)N1c1ccc(-n2c(Cc3ccccc3Nc3c(Cl)cccc3Cl)nc3ccc(Br)cc3c2=O)cc1` (centres undefined) showed a zone of inhibition at 50 µg/mL [1] of 5 mm, an Activity [2] of 61.79% and a zone of inhibition at 100 µg/mL [3] of 8 mm. For the same compound, the zone of inhibition at 50 µg/mL [4] was 5 mm, the Activity [5] was 57.44% and the zone of inhibition at 100 µg/mL [6] was 8 mm. It also gave an Activity [7] of 66.67%, a zone of inhibition at 50 µg/mL [8] of 5 mm and a zone of inhibition at 100 µg/mL [9] of 8 mm. It also gave a zone of inhibition at 100 µg/mL [10] of 5 mm, a zone of inhibition at 50 µg/mL [11] of 2 mm and a zone of inhibition at 50 µg/mL [12] of 3 mm. The Activity [13] was 51.09% and the zone of inhibition at 100 µg/mL [14] was 7 mm.
